Patent publication US9533961B2, “Molecules having certain pesticidal utilities, and intermediates, compositions, and processes related thereto” (priority 2014, dated 2017)

Key:
Format in all cases: in vivo
[1] = system: Beet Armyworm (Spodoptera exigua, LAPHEG) ("BAW"); assay: Bioassay on Beet Armyworm (BAW), 128-well diet tray assay; conditions: 168 h, 50 μg/cm^2 on artificial diet, second instar larvae, five to seven days, 25° C., average of eight wells, read-out: BAW % Control (or Mortality) rating
Experimental: (§1) Certain molecules disclosed in this document were tested against BAW and CEW using procedures described in the following examples. In the reporting of the results, the “BAW & CL Rating Table” was used (See Table Section).
Bioassays on BAW were conducted using a 128-well diet tray assay. one to five second instar BAW larvae were placed in each well (3 mL) of the diet tray that had been previously filled with 1 mL of artificial diet to which 50 μg/cm^2 of the test compound (dissolved in 50 μL of 90:10 acetone-water mixture) had been applied (to each of eight wells) and then allowed to dry. Trays were covered with a clear self-adhesive cover and held at 25° C., 14:10 light-dark for five to seven days. Percent mortality was recorded for the larvae in each well; activity in the eight wells was then averaged. The results are indicated in the table entitled “Table ABC: Biological Results” (See Table Section).

[2] = system: Cabbage Looper (Trichoplusia ni, TRIPNI) ("CL"); assay: Bioassay on Cabbage Looper (CL), 128-well diet tray assay; conditions: 168 h, read-out: CL % Control (or Mortality) rating
Experimental: as §1
Bioassays on CL were conducted using a 128-well diet tray assay. one to five second instar CL larvae were placed in each well (3 mL) of the diet tray that had been previously filled with 1 mL of artificial diet to which 50 μg/cm^2 of the test compound (dissolved in 50 μL of 90:10 acetone-water mixture) had been applied (to each of eight wells) and then allowed to dry. Trays were covered with a clear self-adhesive cover and held at 25° C., 14:10 light-dark for five to seven days. Percent mortality was recorded for the larvae in each well; activity in the eight wells was then averaged. The results are indicated in the table entitled “Table ABC: Biological Results” (See Table Section).

[3] = system: Green Peach Aphid (Myzus persicae, MYZUPE) ("GPA"); assay: Bioassay on Green Peach Aphid (GPA), foliar spray on cabbage seedlings; conditions: 72 h, 200 ppm foliar spray on cabbage seedlings, three days, Abbott corrected % control, read-out: GPA % Control (or Mortality) rating
Experimental: Certain molecules disclosed in this document were tested against GPA using procedures described in the following example. In the reporting of the results, the “GPA Rating Table” was used (See Table Section).
Cabbage seedlings grown in 3-inch pots, with 2-3 small (3-5 cm) true leaves, were used as test substrate. The seedlings were infested with 20-50 GPA (wingless adult and nymph stages) one day prior to chemical application. Four pots with individual seedlings were used for each treatment. Test compounds (2 mg) were dissolved in 2 mL of acetone/methanol (1:1) solvent, forming stock solutions of 1000 ppm test compound. The stock solutions were diluted 5× with 0.025% Tween 20 in water to obtain the solution at 200 ppm test compound. A hand-held aspirator-type sprayer was used for spraying a solution to both sides of […] leaves until runoff. Reference plants (solvent check) were sprayed with the diluent only containing 20% by volume of acetone/methanol (1:1) solvent. Treated plants were held in a holding room for three days at approximately 25° C. and ambient relative humidity (RH) prior to grading. Evaluation was conducted by counting the number of live aphids per plant under a microscope. Percent Control was measured by using Abbott's correction formula (W. S. Abbott, “A Method of Computing the Effectiveness of an Insecticide” J. Econ. Entomol. 18 (1925), pp. 265-267) as follows. Corrected % Control=100*(X−Y)/X • where • X=No. of live aphids on solvent check plants and • Y=No. of live aphids on treated plants

[4] = system: Yellow Fever Mosquito (Aedes aegypti, AEDSAE) ("YFM"); assay: Bioassay on Yellow Fever Mosquito (YFM), 96-well plate larval assay; conditions: about 1 day-old larvae, from 4000 ppm master plate, scored on mortality after 3 days
Experimental: Certain molecules disclosed in this document were tested against YFM using procedures described in the following paragraph. In the reporting of the results, the “YFM Rating Table” was used (See Table Section).
Master plates containing 400 μg of a molecule dissolved in 100 μL of dimethyl sulfoxide (DMSO) (equivalent to a 4000 ppm solution) are used. A master plate of assembled molecules contains 15 μL per well. To this plate, 135 μL of a 90:10 water:acetone mixture is added to each well. A robot (Biomek® NXP Laboratory Automation Workstation) is programmed to dispense 15 μL aspirations from the master plate into an empty 96-well shallow plate (“daughter” plate). There are 6 reps (“daughter” plates) created per master. The created daughter plates are then immediately infested with YFM larvae.
The day before plates are to be treated, mosquito eggs are placed in Millipore water containing liver powder to begin hatching (4 g. into 400 mL). After the daughter plates are created using the robot, they are infested with 220 μL of the liver powder/larval mosquito mixture (about 1 day-old larvae). After plates are infested with mosquito larvae, a non-evaporative lid is used to cover the plate to reduce drying. Plates are held at room temperature for 3 days prior to grading. After 3 days, each well is observed and scored based on mortality.

Compound	mortality at 50 µg/cm2 [1]	mortality at 50 µg/cm2 [2]	mortality at 200 ppm [3]	YFM % Control (or Mortality) rating [4]
CC(C)c1cccc(C(=O)NCCc2ccc(-c3ncn(-c4ccc(OC(F)(F)F)cc4)n3)cc2)c1 [F41, 3-Isopropyl-N-(4-(1-(4-(trifluoromethoxy)phenyl)-1H-1,2,4-triazol-3-yl)phenethyl)benzamide]	0%	50 to 100%	0%	D (No activity noticed in this bioassay)
COc1cccc(C(=O)Nc2ccc(-c3ncn(-c4ccc(OC(F)(F)C(F)(F)F)cc4)n3)cc2)c1 [F14, 3-Methoxy-N-(4-(1-(4-(perfluoroethoxy)phenyl)-1H-1,2,4-triazol-3-yl)phenyl)benzamide]	50 to 100%	50 to 100%	0%	A (80-100)
